Data from patent US11596639B2, “Substituted indole Mcl-1 inhibitors” (Vanderbilt University, priority 2016, dated 2023).

What was measured:
Mcl-1 = Mcl-1 (Homo sapiens (Human), UniProt Q07820); assay: TR-FRET binding assay, FITC-Bak peptide and MBP-tagged Mcl-1; conditions: read-out: Ki for Inhibition of Mcl-1 by TR-FRET assay
Experimental: Compounds are diluted in DMSO in a 16-point, semilog serial dilution scheme. […] The plate was mixed and incubated for 3 hours at room temperature. […] TR-FRET signal is plotted and IC50 and Ki values are calculated in the same manner as the fluorescence polarization anisotropy based competition assays.

[1] = tested on: H929 human cancer cell lines; assay: Cellular viability / proliferation (Cell TiterGlo, 72 h); format: cell-based; conditions: Homo sapiens, NCI-H929, 72 h, read-out: GI50 on cellular proliferation of H929 human cancer cell lines, H929 cells, 72 h, Cell TiterGlo, 10% FBS
Summary of the method: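 1,000 cells/well, 10% FBS medium; compound added at 24 h, 2-fold dilutions from 50 μM top, DMSO <1% final. 72 h exposure, CellTiterGlo 30 min RT dark, luminescence read. IC50 by 4-parameter fit.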

Chain of Mcl-1 (Q07820 172-327): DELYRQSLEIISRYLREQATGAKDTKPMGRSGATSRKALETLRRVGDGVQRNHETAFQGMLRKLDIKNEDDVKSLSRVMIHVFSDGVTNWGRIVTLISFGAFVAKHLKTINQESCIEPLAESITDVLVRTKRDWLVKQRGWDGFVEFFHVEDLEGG

Structure (SMILES) | Ki (Mcl-1) [nM] | GI50 [1] [nM]
Cc1cc(OCCCc2c3n(c4c(-c5c(C)nn(C)c5C)c(Cl)ccc24)[C@H](C)CN(c2cn(CC(=O)N4CCOCC4)c4ccc(-c5ncccn5)cc24)C3=O)cc(C)c1Cl [Example 531, (R)-7-Chloro-10-(3-(4-chloro-3,5-dimethylphenoxy)propyl)-4-methyl-2-(1-(2-morpholino-2-oxoethyl)-5-(pyrimidin-2-yl)-1H-indol-3-yl)-6-(1,3,5-trimethyl-1H-pyrazol-4-yl)-3,4-dihydropyrazino[1,2-a]indol-1(2H)-one] | 0.48 | 380
COCCn1c(C(=O)O)cc2cc(C)cc(N3C[C@@H](C)n4c(c(CCCOc5cc(C)c(Cl)c(C)c5)c5ccc(Cl)c(-c6c(C)n[nH]c6C)c54)C3=O)c21 [Example 718, (R)-7-(7-chloro-10-(3-(4-chloro-3,5-dimethylphenoxy)propyl)-6-(3,5-dimethyl-1H-pyrazol-4-yl)-4-methyl-1-oxo-3,4-dihydropyrazino[1,2-a]indol-2(1H)-yl)-1-(2-methoxyethyl)-5-methyl-1H-indole-2-carboxylic acid] | < 0.2 | 410
Cc1nn(C)c(C)c1-c1c(Cl)ccc2c(CCCOc3cccc4ccccc34)c3n(c12)[C@H](C)CN(c1cn(C)c2ccc(C(=O)O)cc12)C3=O [Example 545, (R)-3-(7-Chloro-4-methyl-10-(3-(naphthalen-1-yloxy)propyl)-1-oxo-6-(1,3,5-trimethyl-1H-pyrazol-4-yl)-3,4-dihydropyrazino[1,2-a]indol-2(1H)-yl)-1-methyl-1H-indole-5-carboxylic acid] | 0.39 | 560
Cc1cc(OCCCc2c3n(c4c(-c5c(C)nn(C)c5C)c(Cl)ccc24)[C@H](C)CN(c2cc(OCC4CC4)cc4cc(C(=O)O)n(C)c24)C3=O)cc(C)c1Cl [Example 485, (R)-7-(7-Chloro-10-(3-(4-chloro-3,5-dimethylphenoxy)propyl)-4-methyl-1-oxo-6-(1,3,5-trimethyl-1H-pyrazol-4-yl)-3,4-dihydropyrazino[1,2-a]indol-2(1H)-yl)-5-(cyclopropylmethoxy)-1-methyl-1H-indole-2-carboxylic acid] | 0.35 | 410
COCCn1cc(N2C[C@@H](C)n3c(c(CCCOc4cc(C)c(Cl)c(C)c4)c4ccc(Cl)c(-c5c(C)nn(C)c5C)c43)C2=O)c2cc(-c3ncn(CC4COC4)n3)ccc21 [Example 581, (R)-7-Chloro-10-(3-(4-chloro-3,5-dimethylphenoxy)propyl)-2-(1-(2-methoxyethyl)-5-(1-(oxetan-3-ylmethyl)-1H-1,2,4-triazol-3-yl)-1H-indol-3-yl)-4-methyl-6-(1,3,5-trimethyl-1H-pyrazol-4-yl)-3,4-dihydropyrazino[1,2-a]indol-1(2H)-one] | 3.7 | 250
Cc1cc(OCCCc2c3n(c4c(-c5c(C)nn(C)c5C)c(Cl)ccc24)[C@H](C)CN(c2cc(OCc4ccccc4)cc4cc(C(=O)O)n(Cc5ccccn5)c24)C3=O)cc(C)c1Cl [Example 588, (R)-5-(benzyloxy)-7-(7-chloro-10-(3-(4-chloro-3,5-dimethylphenoxy)propyl)-4-methyl-1-oxo-6-(1,3,5-trimethyl-1H-pyrazol-4-yl)-3,4-dihydropyrazino[1,2-a]indol-2(1H)-yl)-1-(pyridin-2-ylmethyl)-1H-indole-2-carboxylic acid] | 1.4 | 1400
C=Cc1ccnc(Cn2c(C(=O)O)cc3cc(C)cc(N4C[C@@H](C)n5c(c(CCCOc6cc(C)c(Cl)c(C)c6)c6ccc(Cl)c(-c7c(C)nn(C)c7C)c65)C4=O)c32)c1 [Example 514, (R)-7-(7-chloro-10-(3-(4-chloro-3,5-dimethylphenoxy)propyl)-4-methyl-1-oxo-6-(1,3,5-trimethyl-1H-pyrazol-4-yl)-3,4-dihydropyrazino[1,2-a]indol-2(1H)-yl)-5-methyl-1-((4-vinylpyridin-2-yl)methyl)-1H-indole-2-carboxylic acid] | < 0.2 | < 200
Cc1cc(OCCCc2c3n(c4c(-c5c(C)nn(C)c5C)c(Cl)ccc24)[C@H](C)CN(c2cc(CCN4CCOCC4)cc4cc(C(=O)O)n(C)c24)C3=O)cc(C)c1Cl [Example 715, (R)-7-(7-chloro-10-(3-(4-chloro-3,5-dimethylphenoxy)propyl)-4-methyl-1-oxo-6-(1,3,5-trimethyl-1H-pyrazol-4-yl)-3,4-dihydropyrazino[1,2-a]indol-2(1H)-yl)-1-methyl-5-(2-morpholinoethyl)-1H-indole-2-carboxylic acid] | < 0.2 | < 200
Cc1cc(N2C[C@@H](C)n3c(c(CCCOc4cc(C)c(Cl)c(C)c4)c4ccc(Cl)c(-c5c(C)nn(C)c5C)c43)C2=O)c2c(c1)cc(C(=O)O)n2Cc1cccc(N2CCOCC2)n1 [Example 499, (R)-7-(7-chloro-10-(3-(4-chloro-3,5-dimethylphenoxy)propyl)-4-methyl-1-oxo-6-(1,3,5-trimethyl-1H-pyrazol-4-yl)-3,4-dihydropyrazino[1,2-a]indol-2(1H)-yl)-5-methyl-1-((6-morpholinopyridin-2-yl)methyl)-1H-indole-2-carboxylic acid] | 0.21 | 740
COCCn1c(C(=O)O)cc2c(OC)ccc(N3C[C@@H](C)n4c(c(CCCOc5cc(C)c(Cl)c(C)c5)c5ccc(Cl)c(-c6c(C)ncnc6C)c54)C3=O)c21 [Example 493, (R)-7-(7-chloro-10-(3-(4-chloro-3,5-dimethylphenoxy)propyl)-6-(4,6-dimethylpyrimidin-5-yl)-4-methyl-1-oxo-3,4-dihydropyrazino[1,2-a]indol-2(1H)-yl)-4-methoxy-1-(2-methoxyethyl)-1H-indole-2-carboxylic acid] | < 0.2 | < 200
Cc1cc(OCCCc2c3n(c4c(-c5c(C)ncnc5C)c(Cl)ccc24)[C@H](C)CN(c2cn(C)c4cnc(C(=O)O)cc24)C3=O)cc(C)c1Cl [Example 640, (R)-3-(7-chloro-10-(3-(4-chloro-3,5-dimethylphenoxy)propyl)-6-(4,6-dimethylpyrimidin-5-yl)-4-methyl-1-oxo-3,4-dihydropyrazino[1,2-a]indol-2(1H)-yl)-1-methyl-1H-pyrrolo[2,3-c]pyridine-5-carboxylic acid] | < 0.2 | 8100
Cc1ccc(Cn2cc(C(=O)O)c3cccc(N4C[C@@H](C)n5c(c(CCCOc6cc(C)c(Cl)c(C)c6)c6ccc(Cl)c(-c7c(C)nn(C)c7C)c65)C4=O)c32)nc1 (single isomer, unassigned) [Example 501] | 0.68 | 1200
COCCOc1cc(N2C[C@@H](C)n3c(c(CCCOc4cc(C)c(Cl)c(C)c4)c4ccc(Cl)c(-c5c(C)ncnc5C)c43)C2=O)c2c(c1)cc(C(=O)O)n2Cc1cccc(C)n1 [Example 571, (R)-7-(7-chloro-10-(3-(4-chloro-3,5-dimethylphenoxy)propyl)-6-(4,6-dimethylpyrimidin-5-yl)-4-methyl-1-oxo-3,4-dihydropyrazino[1,2-a]indol-2(1H)-yl)-5-(2-methoxyethoxy)-1-((6-methylpyridin-2-yl)methyl)-1H-indole-2-carboxylic acid] | < 0.2 | < 200
Cc1cc(OCCCc2c3n(c4c(-c5c(C)nn(C)c5C)c(Cl)ccc24)[C@H](C)CN(c2cn(C[C@H]4CCCN4C)c4ccc(C(=O)O)cc24)C3=O)cc(C)c1Cl [Example 694, 3-((R)-7-chloro-10-(3-(4-chloro-3,5-dimethylphenoxy)propyl)-4-methyl-1-oxo-6-(1,3,5-trimethyl-1H-pyrazol-4-yl)-3,4-dihydropyrazino[1,2-a]indol-2(1H)-yl)-1-(((R)-1-methylpyrrolidin-2-yl)methyl)-1H-indole-5-carboxylic acid] | < 0.2 | 320
Cc1cc(OCCCc2c3n(c4c(-c5c(C)nn(C)c5C)c(Cl)ccc24)[C@H](C)CN(c2cc(C(=O)O)cc4cc(C(=O)O)n(C)c24)C3=O)cc(C)c1Cl [Example 697, (R)-7-(7-chloro-10-(3-(4-chloro-3,5-dimethylphenoxy)propyl)-4-methyl-1-oxo-6-(1,3,5-trimethyl-1H-pyrazol-4-yl)-3,4-dihydropyrazino[1,2-a]indol-2(1H)-yl)-1-methyl-1H-indole-2,5-dicarboxylic acid] | < 0.2 | 2000
COCCOc1cc(N2C[C@@H](C)n3c(c(CCCOc4cc(C)c(Cl)c(C)c4)c4ccc(Cl)c(-c5c(C)nn(C)c5C)c43)C2=O)c2c(c1)cc(C(=O)O)n2Cc1ccccn1 [Example 537, (R)-7-(7-Chloro-10-(3-(4-chloro-3,5-dimethylphenoxy)propyl)-4-methyl-1-oxo-6-(1,3,5-trimethyl-1H-pyrazol-4-yl)-3,4-dihydropyrazino[1,2-a]indol-2(1H)-yl)-5-(2-methoxyethoxy)-1-(pyridin-2-ylmethyl)-1H-indole-2-carboxylic acid] | < 0.2 | < 200
COCCOc1cc(N2C[C@@H](C)n3c(c(CCCOc4cc(C)c(Cl)c(C)c4)c4ccc(Cl)c(-c5c(C)n[nH]c5C)c43)C2=O)c2c(c1)cc(C(=O)O)n2C [Example 716, (R)-7-(7-chloro-10-(3-(4-chloro-3,5-dimethylphenoxy)propyl)-6-(3,5-dimethyl-1H-pyrazol-4-yl)-4-methyl-1-oxo-3,4-dihydropyrazino[1,2-a]indol-2(1H)-yl)-5-(2-methoxyethoxy)-1-methyl-1H-indole-2-carboxylic acid] | < 0.2 | 550
COc1ccc(N2C[C@@H](C)n3c(c(CCCOc4cc(C)c(Cl)c(C)c4)c4ccc(Cl)c(-c5c(C)n[nH]c5C)c43)C2=O)c2c1cc(C(=O)O)n2Cc1ccccn1 [Example 724, (R)-7-(7-chloro-10-(3-(4-chloro-3,5-dimethylphenoxy)propyl)-6-(3,5-dimethyl-1H-pyrazol-4-yl)-4-methyl-1-oxo-3,4-dihydropyrazino[1,2-a]indol-2(1H)-yl)-4-methoxy-1-(pyridin-2-ylmethyl)-1H-indole-2-carboxylic acid] | < 0.2 | 330
